Data from PMC6893645, “Baicalein as a Potential Inhibitor against BACE1 and AChE: Mechanistic Comprehension through In Vitro and Computational Approaches” (Nutrients, 2019).

Key:
BACE1 = tested on: BACE1; set-up: method as in PMID 24291393; conditions: cited from earlier work
Tg2576 mice = tested on: Tg2576 mice; set-up: method as in PMID 23686791; conditions: 10 mg/kg; cited from earlier work
[1] = humans, 2.8 mg single dose; cited from earlier work
chymotrypsin = molecular target: T1, chymotrypsin (Bos taurus, UniProt P00766); assay: Chymotrypsin colorimetric assay; assay type: biochemical
T1 construct: purchased Sigma-Aldrich (St. Louis, MO, USA)
Experimental: (§1) The colorimetric assays of AChE, trypsin, chymotrypsin, and elastase were carried out using acetylthiocholine iodide, […], and N-succinyl-Ala-Ala-Ala-pNA as substrates, respectively. The hydrolysis of AChE was monitored according to the formation of yellow 5-thio-2-nitrobenzoate anions at 405 nm for 15 min, which were produced by the reaction of DTNB with thiocholine released from ACh. All reactions were performed in 96-well plates in triplicate and recorded using a microplate spectrophotometer.
(§2) For trypsin, chymotrypsin, and elastase assays, enzyme, Tris-HCl buffer (0.05 M, in 0.02 M CaCl2, pH 8.2), and baicalein were incubated for 10 min at 25 °C; then, substrate was added for 30 min at 37 °C. The absorbance was recorded at 410 nm. The inhibition ratio was obtained using the following equation:Inhibition (%) = {[1 − (A − B)]/control} × 100 where A was the absorbance of the control (enzyme, assay buffer, and substrate) after 60 min of incubation, and B was the absorbance of tested sample (assay buffer and sample solution) after 60 min of incubation.

APP/PS1 mice = conditions: 80 mg/kg; cited from earlier work
[2] = rat, oral S. baicalensis extract 30 mg/kg; cited from earlier work
trypsin = assay: Trypsin colorimetric assay; assay type: biochemical; conditions: for Inhibitory activity against Trypsin: mean ± SD
Experimental: as §1, §2

[3] = cited from earlier work
elastase = molecular target: T2, elastase (Sus scrofa, UniProt P00772); assay: Elastase colorimetric assay; assay type: biochemical
T2 construct: purchased Sigma-Aldrich (St. Louis, MO, USA)
Experimental: as §1, §2

[4] = set-up: method as in doi:10.1016/j.arabjc.2017.08.002; conditions: chemical scavenging and cellular antioxidant ability among flavonoids of S. baicalensis; cited from earlier work
AChE = AChE (Electrophorus electricus, UniProt O42275); conditions: Dixon and Lineweaver–Burk plots
Experimental: The colorimetric assays of AChE, trypsin, chymotrypsin, and elastase were carried out using acetylthiocholine iodide, N-benzoyl-L-Tyr-pNA, N-benzoyl-L-Arg-pNA, and N-succinyl-Ala-Ala-Ala-pNA as substrates, respectively. […] All reactions were performed in 96-well plates in triplicate and recorded using a microplate spectrophotometer.
The inhibitory constant (Ki) was obtained by interpretation of the Dixon plot, and maximum reaction velocity (Vmax) and Michaelis–Menten constant (Km) values were determined by a Lineweaver–Burk plot, using the initial velocities obtained over a different substrate concentration ranges.

human recombinant TACE = molecular target: T3, human recombinant TACE (Homo sapiens, UniProt P78536); assay: TACE fluorometric assay; assay type: biochemical
T3 construct: purchased R&D Systems (Minneapolis, MN, USA)
Experimental: A human recombinant TACE (0.1 ppm in 25 mM Tris buffer), the substrate (APP peptide […] using EDANS/DABCYL), and baicalein were dissolved in an assay buffer and then combined and incubated for 60 min in the dark at 25 °C.

[5] = tested on: AlCl3-induced AD mouse model; conditions: cited from earlier work

T2 sequence (P00772 27-266): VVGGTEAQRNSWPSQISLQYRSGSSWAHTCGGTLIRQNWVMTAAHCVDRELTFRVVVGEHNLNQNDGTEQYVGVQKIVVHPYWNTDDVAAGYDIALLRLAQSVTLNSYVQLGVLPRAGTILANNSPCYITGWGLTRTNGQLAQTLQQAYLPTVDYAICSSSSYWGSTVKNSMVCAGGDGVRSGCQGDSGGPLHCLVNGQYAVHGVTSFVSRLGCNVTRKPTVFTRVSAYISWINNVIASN
T3 sequence (P78536 215-824): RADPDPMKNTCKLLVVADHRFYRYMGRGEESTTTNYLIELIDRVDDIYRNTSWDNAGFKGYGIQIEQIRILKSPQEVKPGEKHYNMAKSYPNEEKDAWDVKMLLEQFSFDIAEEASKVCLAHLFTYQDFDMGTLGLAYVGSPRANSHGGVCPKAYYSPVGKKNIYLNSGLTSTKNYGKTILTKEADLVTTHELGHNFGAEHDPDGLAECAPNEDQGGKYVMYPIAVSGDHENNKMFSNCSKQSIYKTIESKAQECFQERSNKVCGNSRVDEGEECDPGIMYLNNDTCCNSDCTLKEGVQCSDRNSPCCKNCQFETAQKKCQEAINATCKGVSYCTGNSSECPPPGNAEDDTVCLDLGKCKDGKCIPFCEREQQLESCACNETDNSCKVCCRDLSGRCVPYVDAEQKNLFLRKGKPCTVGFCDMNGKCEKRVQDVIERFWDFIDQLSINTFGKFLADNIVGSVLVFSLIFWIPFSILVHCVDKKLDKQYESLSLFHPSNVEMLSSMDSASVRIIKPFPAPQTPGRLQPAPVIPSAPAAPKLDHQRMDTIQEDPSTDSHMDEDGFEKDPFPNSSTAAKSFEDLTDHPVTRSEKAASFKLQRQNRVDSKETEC
Chain of AChE (O42275 24-633): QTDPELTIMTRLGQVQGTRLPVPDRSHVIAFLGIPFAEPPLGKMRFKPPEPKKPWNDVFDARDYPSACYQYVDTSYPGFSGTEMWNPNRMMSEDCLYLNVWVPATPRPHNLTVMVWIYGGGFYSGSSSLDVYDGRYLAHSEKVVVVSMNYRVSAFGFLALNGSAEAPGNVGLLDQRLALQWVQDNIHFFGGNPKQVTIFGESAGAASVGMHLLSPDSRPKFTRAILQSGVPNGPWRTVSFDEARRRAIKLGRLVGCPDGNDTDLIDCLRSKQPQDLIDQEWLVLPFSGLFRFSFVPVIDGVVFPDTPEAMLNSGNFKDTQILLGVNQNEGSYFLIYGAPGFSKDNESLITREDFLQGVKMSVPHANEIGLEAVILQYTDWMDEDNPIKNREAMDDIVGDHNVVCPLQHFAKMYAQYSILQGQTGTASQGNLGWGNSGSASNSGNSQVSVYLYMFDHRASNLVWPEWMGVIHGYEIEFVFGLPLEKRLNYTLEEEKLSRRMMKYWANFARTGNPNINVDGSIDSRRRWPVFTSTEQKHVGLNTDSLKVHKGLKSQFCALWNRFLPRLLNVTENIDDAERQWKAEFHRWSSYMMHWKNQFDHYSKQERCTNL

## O=c1cc(-c2ccc(O)cc2)oc2cc(O)cc(O)c12 [Apigenin, 4′,5,7-trihydroxyflavone]
BACE1
  IC50: > 100 µM

## O=c1cc(-c2ccccc2)oc2cc(O)c(O)c(O)c12 [Baicalein, 5,6,7-trihydroxyflavone]
Tg2576 mice
  Cognitive performance: significantly improves
[1]
  Toxicity after single-dose administration: no signs of toxicity
chymotrypsin; baicalein 50 μM, mean ± SD, read-out: Inhibitory activity against Chymotrypsin
  inhibition at 50 µM: 8.42 ± 0.76%
chymotrypsin; baicalein 100 μM, mean ± SD, read-out: Inhibitory activity against Chymotrypsin
  inhibition at 100 µM: 4.48 ± 0.76%
chymotrypsin; up to 100 µM
  Inhibitory activity against chymotrypsin (in words): no significant inhibitory activity
APP/PS1 mice
  LOX and GSK3β activity: inhibits LOX and GSK3β activity
[2]
  Brain-to-plasma ratio compared with baicalin: twenty times higher
trypsin; baicalein 50 μM
  Inhibitory activity against Trypsin: 3.40 ± 0.76%
trypsin; baicalein 100 μM
  Inhibitory activity against Trypsin: −6.95 ± 0.87%
trypsin; up to 100 µM
  Inhibitory activity against trypsin (in words): no significant inhibitory activity
[3]; 30 mg/kg
  Time to cross the BBB after administration: about half an hour
[3]; rat, 30 and 60 mg/kg through the femoral vein
  BBB penetration: rapidly penetrated the BBB
elastase; baicalein 50 μM, mean ± SD, read-out: Inhibitory activity against Elastase
  inhibition at 50 µM: 10.3 ± 1.04%
elastase; baicalein 100 μM, mean ± SD, read-out: Inhibitory activity against Elastase
  inhibition at 100 µM: 9 ± 0.45%
elastase; up to 100 µM
  Inhibitory activity against elastase (in words): no significant inhibitory activity
[4]
  Antioxidant ability: most powerful antioxidant effect
AChE
  AChE Inhibition Type: Competitive
Human recombinant TACE; baicalein 50 μM, mean ± SD, read-out: Inhibitory activity against TACE
  inhibition at 50 µM: 8.31 ± 0.89%
Human recombinant TACE; baicalein 100 μM, mean ± SD, read-out: Inhibitory activity against TACE
  inhibition at 100 µM: 9.45 ± 0.71%
Human recombinant TACE; up to 100 µM
  Inhibitory activity against TACE (in words): no significant inhibitory activity
[5]
  Behavioral dysfunction: improved

## O=c1cc(-c2ccccc2)oc2cc(O)cc(O)c12 [Chrysin, reference compound]
[4]
  Antioxidant ability: much weaker antioxidant ability
